The results in this text go back to patent US10138233B2, “Imidazole compounds as modulators of FSHR and uses thereof” (Merck Patent GmbH, priority 2013, dated 2018).

pEC50: −log10 of the molar value.

The assay addresses T1, FSHR (Homo sapiens, UniProt P23945).
T1 construct: expressed in transfected cells; host or cells: CHO cells, clone Cho-FSHR-LUC-1-1-43
T1 sequence (P23945 18-695): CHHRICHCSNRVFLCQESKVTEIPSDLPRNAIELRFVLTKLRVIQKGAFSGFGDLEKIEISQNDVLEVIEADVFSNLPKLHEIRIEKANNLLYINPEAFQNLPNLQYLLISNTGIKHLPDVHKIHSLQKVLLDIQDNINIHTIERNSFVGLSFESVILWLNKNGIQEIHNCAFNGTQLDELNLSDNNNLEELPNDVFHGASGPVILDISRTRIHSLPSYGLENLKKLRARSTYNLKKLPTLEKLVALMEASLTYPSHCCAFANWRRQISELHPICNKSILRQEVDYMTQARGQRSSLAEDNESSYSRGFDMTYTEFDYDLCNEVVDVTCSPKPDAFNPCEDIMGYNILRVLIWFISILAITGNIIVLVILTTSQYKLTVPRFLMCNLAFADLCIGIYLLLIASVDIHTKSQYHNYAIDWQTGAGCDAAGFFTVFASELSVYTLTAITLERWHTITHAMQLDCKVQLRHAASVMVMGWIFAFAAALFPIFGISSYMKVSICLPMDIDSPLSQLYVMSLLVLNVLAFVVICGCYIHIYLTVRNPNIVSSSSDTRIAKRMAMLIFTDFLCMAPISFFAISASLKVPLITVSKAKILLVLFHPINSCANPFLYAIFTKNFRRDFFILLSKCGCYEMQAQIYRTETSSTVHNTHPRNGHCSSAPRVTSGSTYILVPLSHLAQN
As to the kind of experiment: EC50 of cyclic AMP production in CHO FSHR cells + EC20 FSH (Assay A). The format is cell-based. The settings on record: CHO-FSHR-LUC cells, in presence of EC20 FSH, cAMP HTRF, 1 h 37° C. As to the method: EC50 of cyclic AMP production in CHO FSHR cells+EC20 FSH (Assay A)
2500 Cho-FSHR-LUC-1-1-43 cells were plated per well in 5 μl of phenol red free DMEM/F12+1% FBS. […] Cells were assayed by adding 100 μl of 2×EC20 FSH/IBMX in DMEM/F12+0.1% BSA) by Multidrop to 2 μl of test compound stamped in 384 well plates (compounds are diluted 1:50). […] The compound plate map was as follows: Column 1: 2 μl of DMSO; Column 2: 2 μl of DMSO; Columns 3-12 and 13-24: 2 μl of test compound, diluted 1:4 in 100% DMSO, or 2 μl of FSH, diluted 1:4 in DMEM/F12+0.1% BSA. The starting concentration for FSH was 50 nM (final concentration was 0.5 nM). […] 10 μl of mixed HTRF (CisBio #62AM4PEC) reagents were added per well and incubated at room temperature for 1 h. The plates were read on Envision using the cAMP HTRF—low volume 384 well protocol. […] Values given in percent (%) indicate the percental effect (response) at a certain concentration of agonist relative to the maximum response of the FSH standard.
As a reminder, the pEC50 is the negative decadic logarithm of the EC50, by convention in mol/L. Regarding `COC(=O)c1nc(C(=O)N(C)C(C)(C)C)c2n1-c1cc(OC(C)C)c(OC)cc1CC2` [Compound 74, 3-(tert-Butyl-methyl-carbamoyl)-8-isopropoxy-7-methoxy-4,5-dihydro-imidazo[1,5-a]quinoline-1-carboxylic acid methyl ester], the pEC50 was 5.30 to 6.00. For `COc1cc2c(cc1-c1ccn(C)n1)-n1c(-c3ccsc3)nc(C(=O)N(C)C(C)(C)C)c1CC2` [Compound 77, 7-Methoxy-8-(1-methyl-1H-pyrazol-3-yl)-1-thiophen-3-yl-4,5-dihydro-imidazo[1,5-a]quinoline-3-carboxylic acid tert-butyl-methyl-amide] the value was 6.00 to 7.00. With `COc1cc2c(cc1NC(=O)C(C)C)-n1c(-c3cccs3)nc(C(=O)N3CCOCC3(C)C)c1CC2` [Compound 78, N-[3-(3,3-Dimethyl-morpholine-4-carbonyl)-7-methoxy-1-thiophen-2-yl-4,5-dihydro-imidazo[1,5-a]quinolin-8-yl]-isobutyramide] the figure was 6.00 to 7.00; with `COc1cc2c(cc1OC(C)C)-n1c(C3=CCOCC3)nc(C(=O)N3CCOCC3(C)C)c1CC2` [Compound 79], 6.00 to 7.00; with `COc1cc2c(cc1OC(C)C)-n1c(-c3cnn(C4CCC4)c3)nc(C(=O)N3CCOCC3(C)C)c1CC2` [Compound 80], below 5.30. Take `COc1cc2c(cc1OC(C)C)-n1c(-c3cccc4[nH]ncc34)nc(C(=O)N3CCOCC3(C)C)c1CC2` [Compound 81]: the pEC50 is 5.30 to 6.00.

Take `COCCCc1nc(C(=O)N2CCOCC2(C)C)c2n1-c1cc(OC(C)C)c(OC)cc1CC2` [Compound 82, (3,3-Dimethyl-morpholin-4-yl)-[8-isopropoxy-7-methoxy-1-(3-methoxy-propyl)-4,5-dihydro-imidazo[1,5-a]quinolin-3-yl]-methanone]: the pEC50 was below 5.30.

For the molecule `COc1cc2c(cc1OC(C)C)-n1c(C3CCCC3)nc(C(=O)N3CCOCC3(C)C)c1CC2` [Compound 83, (1-Cyclopentyl-8-isopropoxy-7-methoxy-4,5-dihydro-imidazo[1,5-a]quinolin-3-yl)-(3,3-dimethyl-morpholin-4-yl)-methanone], the negative logarithm of the EC50 (pEC50) was 6.00 to 7.00.

Regarding `COc1cc2c(cc1OC(C)C)-n1c(C3CCOCC3)nc(C(=O)N3CCOCC3(C)C)c1CC2` [Compound 84, (3,3-Dimethyl-morpholin-4-yl)-[8-isopropoxy-7-methoxy-1-(tetrahydro-pyran-4-yl)-4,5-dihydro-imidazo[1,5-a]quinolin-3-yl]-methanone], the negative-log EC50 (pEC50) is below 5.30.

Regarding `COc1cc2c(cc1OC(C)C)-n1c(C3CCCCO3)nc(C(=O)N3CCOCC3(C)C)c1CC2` (stereo not drawn) [Compound 85, (3,3-Dimethyl-morpholin-4-yl)-[8-isopropoxy-7-methoxy-1-(tetrahydro-pyran-2-yl)-4,5-dihydro-imidazo[1,5-a]quinolin-3-yl]-methanone], the pEC50 was below 5.30. For `COc1cc2c(cc1OC(C)C)-n1c(C3=CCC(C)CC3)nc(C(=O)N3CCOCC3(C)C)c1CC2` (stereo not drawn) [Compound 86] the value was 5.30 to 6.00; for `COc1cc2c(cc1OC(C)C)-n1c(-c3ccnn3CC(C)C)nc(C(=O)N3CCOCC3(C)C)c1CC2` [Compound 87], 5.30 to 6.00. For the molecule `CCCn1nccc1-c1nc(C(=O)N2CCOCC2(C)C)c2n1-c1cc(OC(C)C)c(OC)cc1CC2` [Compound 88], the pEC50 is 6.00 to 7.00.

Take `COc1cc2c(cc1OC(C)C)-n1c(-c3cccc4cn[nH]c34)nc(C(=O)N3CCOCC3(C)C)c1CC2` [Compound 89]: the pEC50 is 5.30 to 6.00. For `[2H]C([2H])([2H])NC(=O)c1cc2c(cc1OC)CCc1c(C(=O)N(C)C(C)(C)C)nc(-c3cccs3)n1-2` [Compound 90, 7-Methoxy-1-thiophen-2-yl-4,5-dihydro-imidazo[1,5-a]quinoline-3,8-dicarboxylic acid 3-(tert-butyl-methyl-amide) 8-methyl-d3-amide] the value was 5.30 to 6.00; for `CCCn1nc(C)cc1-c1nc(C(=O)N2CCOCC2(C)C)c2n1-c1cc(OC(C)C)c(OC)cc1CC2` [Compound 91], 5.30 to 6.00. In the case of `CCn1nccc1-c1nc(C(=O)N2CCOCC2(C)C)c2n1-c1cc(OC(C)C)c(OC)cc1CC2` [Compound 92], the pEC50 was 6.00 to 7.00. Take `COc1cc2c(cc1OC(C)C)-n1c(C3=CCCN(C)C3)nc(C(=O)N3CCOCC3(C)C)c1CC2` [Compound 93]: the pEC50 was below 5.30. Turning to `COc1cc2c(cc1CC(C)C)-n1c(C3CCOC3)nc(C(=O)N(C)C(C)(C)C)c1CC2` (stereo not drawn) [Compound 94, N-(tert-butyl)-8-isobutyl-7-methoxy-N-methyl-1-(tetrahydrofuran-3-yl)-4,5-dihydroimidazo[1,5-a]quinoline-3-carboxamide], the pEC50 was 5.30 to 6.00.

Regarding `COc1cc2c(cc1CC(C)C)-n1c(-c3cc(C)cs3)nc(C(=O)N(C)C(C)(C)C)c1CC2` [Compound 95, 8-Isobutyl-7-methoxy-1-(4-methyl-thiophen-2-yl)-4,5-dihydro-imidazo[1,5-a]quinoline-3-carboxylic acid tert-butyl-methyl-amide], the negative logarithm of the EC50 (pEC50) is 6.00 to 7.00. With `COc1cc2c(cc1-c1ccn(C)c1)-n1c(-c3cccs3)nc(C(=O)NC3(C)COC3)c1CC2` [Compound 98, 7-Methoxy-8-(1-methyl-1H-pyrrol-3-yl)-1-thiophen-2-yl-4,5-dihydro-imidazo[1,5-a]quinoline-3-carboxylic acid (3-methyl-oxetan-3-yl)-amide] the figure was 5.30 to 6.00; with `COc1cc2c(cc1OC(C)C)-n1c(-c3sc(C)cc3C)nc(C(=O)N3CCOCC3(C)C)c1CC2` [Compound 99], 6.00 to 7.00. Regarding `COc1cc2c(cc1OC(C)C)-n1c(C3=CCCC3(C)C)nc(C(=O)N3CCOCC3(C)C)c1CC2` [Compound 100], the negative logarithm of the EC50 (pEC50) is above 7.00. On to `COc1cc2c(cc1OC(C)C)-n1c(-c3cc(Cl)ccc3F)nc(C(=O)N3CCOCC3(C)C)c1CC2` [Compound 101], for which the pEC50 was 6.00 to 7.00. With `COc1ccc(-c2nc(C(=O)N3CCOCC3(C)C)c3n2-c2cc(OC(C)C)c(OC)cc2CC3)cc1Cl` [Compound 103] the figure was below 5.30. Turning to `COc1cc2c(cc1OC(C)C)-n1c(-c3cc(F)ccc3OC)nc(C(=O)N3CCOCC3(C)C)c1CC2` [Compound 104], the negative-log EC50 (pEC50) is 5.30 to 6.00. With `COc1cc2c(cc1OC(C)C)-n1c(-c3cc(Cl)ccc3OC)nc(C(=O)N3CCOCC3(C)C)c1CC2` [Compound 105] the figure was 5.30 to 6.00. For `COc1cc2c(cc1OC(C)C)-n1c(-c3ccsc3C)nc(C(=O)N3CCOCC3(C)C)c1CC2` [Compound 106], the negative logarithm of the EC50 (pEC50) was 6.00 to 7.00. In the case of `COc1cc2c(cc1OC(C)C)-n1c(-c3ccc(F)c(C#N)c3)nc(C(=O)N3CCOCC3(C)C)c1CC2` [Compound 107], the pEC50 was below 5.30. With `COc1cc(-c2nc(C(=O)N3CCOCC3(C)C)c3n2-c2cc(OC(C)C)c(OC)cc2CC3)ccc1F` [Compound 108] the figure was 5.30 to 6.00; with `COc1cc2c(cc1OC(C)C)-n1c(-c3ccc(Cl)c(F)c3)nc(C(=O)N3CCOCC3(C)C)c1CC2` [Compound 109], 6.00 to 7.00. Take `COc1cc2c(cc1OC(C)C)-n1c(-c3ccc(F)c(C(F)(F)F)c3)nc(C(=O)N3CCOCC3(C)C)c1CC2` [Compound 111]: the negative logarithm of the EC50 (pEC50) is 5.30 to 6.00. On to `COc1cc2c(cc1OC(C)C)-n1c(-c3cccc(OC)c3F)nc(C(=O)N3CCOCC3(C)C)c1CC2` [Compound 112], for which the pEC50 is 5.30 to 6.00. With `COc1cc2c(cc1OC(C)C)-n1c(-c3cc(Cl)c(F)cc3F)nc(C(=O)N3CCOCC3(C)C)c1CC2` [Compound 113] the figure was 5.30 to 6.00; with `COc1cccc(-c2nc(C(=O)N3CCOCC3(C)C)c3n2-c2cc(OC(C)C)c(OC)cc2CC3)c1` [Compound 115], 6.00 to 7.00; with `COc1cc2c(cc1OC(C)C)-n1c(-c3ccc(F)c(Cl)c3)nc(C(=O)N3CCOCC3(C)C)c1CC2` [Compound 116], 6.00 to 7.00.

As to `COc1cc2c(cc1OC(C)C)-n1c(-c3cc(Cl)ccc3OC(F)(F)F)nc(C(=O)N3CCOCC3(C)C)c1CC2` [Compound 117], the pEC50 was 5.30 to 6.00. Consider `COc1ccc(-c2nc(C(=O)N3CCOCC3(C)C)c3n2-c2cc(OC(C)C)c(OC)cc2CC3)cc1F` [Compound 118], for which the pEC50 was below 5.30. Consider `COc1cc2c(cc1OC(C)C)-n1c(-c3cc(C(F)(F)F)cc(C(F)(F)F)c3)nc(C(=O)N3CCOCC3(C)C)c1CC2` [Compound 119], for which the pEC50 is 6.00 to 7.00.
